Measurements reported in patent US20250154150A1, “SUBSTITUTED FUSED RING COMPOUND, PHARMACEUTICAL COMPOSITION THEREOF, PREPARATION METHOD THEREFOR AND USES THEREOF” (SUZHOU YABAO PHARMACEUTICAL R&D CO., LTD., priority 2022, published 2025).

Tests used:
[1] = target: LRRK2 G2019S (Homo sapiens (Human), UniProt Q5S007, G2019S); assay: Kinase inhibition assay (ADP-Glo, LRRKtide substrate); type: biochemical; settings: LRRK2 G2019S protein, room temperature
Experimental: Kinase LRRK2 G2019S protein was derived from Carna, LRRKtide was derived from Signalchem, ATP was derived from Promega, and DMSO was derived from Sigma.
All assays were performed at room temperature. The test compounds were dissolved and diluted, and then added to a 384-well plate. 2.5 μL of 2× kinase reaction buffer was added, and the mixture was centrifuged. 2.5 μL of a mixture of 2× substrate and ATP was added, and the mixture was centrifuged. 4 μL of ADP-Glo reagent was added, and the mixture was incubated at room temperature for 40 min. 8 μL of […] was added, and the mixture was incubated at room temperature for 40 min. Then, the data were read using the Envision 2104 multi-label Reader.

[2] = target: LRRK2-R1441C (Homo sapiens (Human), UniProt Q5S007, R1441C); assay: HEK293 cell kinase inhibition assay (NanoBRET); type: cell-based; settings: HEK293 cells
Chain of LRRK2-R1441C (Q5S007 whole entry R1441C): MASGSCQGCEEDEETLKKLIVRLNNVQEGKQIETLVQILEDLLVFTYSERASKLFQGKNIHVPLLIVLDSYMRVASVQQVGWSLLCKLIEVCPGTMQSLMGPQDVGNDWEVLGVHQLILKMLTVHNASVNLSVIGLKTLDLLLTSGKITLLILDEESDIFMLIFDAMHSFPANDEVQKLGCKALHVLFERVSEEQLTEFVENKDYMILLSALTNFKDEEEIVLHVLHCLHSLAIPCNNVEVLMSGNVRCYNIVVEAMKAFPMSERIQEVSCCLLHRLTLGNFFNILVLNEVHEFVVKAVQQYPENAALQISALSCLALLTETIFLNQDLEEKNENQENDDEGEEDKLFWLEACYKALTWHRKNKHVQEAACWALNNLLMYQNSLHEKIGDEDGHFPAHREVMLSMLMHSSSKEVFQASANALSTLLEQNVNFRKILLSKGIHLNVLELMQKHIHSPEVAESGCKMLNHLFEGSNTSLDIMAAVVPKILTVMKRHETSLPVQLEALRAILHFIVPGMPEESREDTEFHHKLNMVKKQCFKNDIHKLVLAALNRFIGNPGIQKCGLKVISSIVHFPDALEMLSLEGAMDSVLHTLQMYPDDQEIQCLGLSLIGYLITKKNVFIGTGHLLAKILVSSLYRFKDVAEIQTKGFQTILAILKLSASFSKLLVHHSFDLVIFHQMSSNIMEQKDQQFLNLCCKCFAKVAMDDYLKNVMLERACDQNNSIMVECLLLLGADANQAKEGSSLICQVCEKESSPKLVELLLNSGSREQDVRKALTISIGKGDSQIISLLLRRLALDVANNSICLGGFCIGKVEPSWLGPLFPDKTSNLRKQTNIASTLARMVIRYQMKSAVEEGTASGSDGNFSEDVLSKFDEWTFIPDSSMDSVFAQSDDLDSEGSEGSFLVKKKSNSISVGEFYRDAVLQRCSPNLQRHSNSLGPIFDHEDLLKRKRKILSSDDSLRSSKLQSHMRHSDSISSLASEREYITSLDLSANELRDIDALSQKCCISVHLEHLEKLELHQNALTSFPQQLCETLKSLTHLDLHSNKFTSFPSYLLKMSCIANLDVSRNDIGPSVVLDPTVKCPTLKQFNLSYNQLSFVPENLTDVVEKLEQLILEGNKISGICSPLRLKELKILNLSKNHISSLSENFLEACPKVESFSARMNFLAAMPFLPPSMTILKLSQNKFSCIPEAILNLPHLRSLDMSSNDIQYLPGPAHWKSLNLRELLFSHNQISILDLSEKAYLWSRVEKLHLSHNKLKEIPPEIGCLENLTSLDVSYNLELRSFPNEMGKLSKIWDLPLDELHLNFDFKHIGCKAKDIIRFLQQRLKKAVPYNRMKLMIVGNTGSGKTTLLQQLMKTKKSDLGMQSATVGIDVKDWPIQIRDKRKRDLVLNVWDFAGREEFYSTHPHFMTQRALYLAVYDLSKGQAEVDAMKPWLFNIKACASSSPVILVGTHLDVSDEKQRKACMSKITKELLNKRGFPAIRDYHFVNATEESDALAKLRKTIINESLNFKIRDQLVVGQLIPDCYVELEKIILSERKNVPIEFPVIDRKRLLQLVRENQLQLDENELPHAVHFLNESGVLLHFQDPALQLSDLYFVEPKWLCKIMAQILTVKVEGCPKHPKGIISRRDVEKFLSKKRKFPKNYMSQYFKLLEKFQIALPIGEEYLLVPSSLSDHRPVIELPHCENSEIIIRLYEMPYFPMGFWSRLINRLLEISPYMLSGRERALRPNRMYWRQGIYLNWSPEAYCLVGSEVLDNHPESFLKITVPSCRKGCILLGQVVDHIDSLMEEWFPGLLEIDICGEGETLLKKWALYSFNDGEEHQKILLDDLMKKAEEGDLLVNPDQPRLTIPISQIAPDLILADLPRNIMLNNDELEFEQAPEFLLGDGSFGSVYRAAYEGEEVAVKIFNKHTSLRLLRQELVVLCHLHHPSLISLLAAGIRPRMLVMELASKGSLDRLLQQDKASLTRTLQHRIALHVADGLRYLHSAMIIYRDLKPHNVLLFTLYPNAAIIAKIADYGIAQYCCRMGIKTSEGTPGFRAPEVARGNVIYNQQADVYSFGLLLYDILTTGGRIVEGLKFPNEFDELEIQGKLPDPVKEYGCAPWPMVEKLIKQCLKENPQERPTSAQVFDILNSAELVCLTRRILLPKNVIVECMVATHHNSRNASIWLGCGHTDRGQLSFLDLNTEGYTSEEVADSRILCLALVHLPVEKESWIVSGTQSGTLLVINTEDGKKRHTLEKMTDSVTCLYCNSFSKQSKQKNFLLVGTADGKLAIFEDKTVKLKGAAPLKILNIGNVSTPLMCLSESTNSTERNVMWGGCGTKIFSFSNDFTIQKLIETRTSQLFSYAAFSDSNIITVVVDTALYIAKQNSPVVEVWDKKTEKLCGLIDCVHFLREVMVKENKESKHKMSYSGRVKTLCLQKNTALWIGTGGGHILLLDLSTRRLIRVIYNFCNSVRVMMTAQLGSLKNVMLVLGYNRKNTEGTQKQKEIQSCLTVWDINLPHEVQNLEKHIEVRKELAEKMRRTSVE
Experimental: (§1) HEK293 cells were cultured, and collected by adding trypsin. Culture medium was added, and the cell density was adjusted to 2×10^5/mL. Liposome-DNA complexes were constructed and mixed with HEK293 cells at a ratio of 1:20. The mixture was added to a 384-well plate, and incubated at 37° C. for 20-30 h. A mixed solution of enzyme substrate and the test compound was added, and the mixture was incubated at room temperature for 2-3 min. NanoBRET reagent (Promega) was added, and bioluminescence was measured within 10 min using the microplate reader (Envision 2104) at 450 nm for the donor luciferase protein (donor) and 610 nm for the acceptor fluorescent group (acceptor). The BRET ratio for the test compounds was calculated using the following formula, including a background correction option.
(§2) [formula] • Acceptorsample: 610 nm fluorescence with the test compound; • Donorsample: 450 nm fluorescence with the test compound; • Acceptorno-tracer control: 610 nm fluorescence of background (without the test compound); • Donorno-tracer control: 450 nm fluorescence of background (without the test compound)
(§3) The inhibitory activity of the test compounds on cellular LRRK2 enzyme was calculated by the following formula: […]
(§4) The IC50 values of the test compounds against cellular LRRK2 enzyme were calculated using Graphpad software. Non-linear regression fitting (dose-effect−variable slope method) was performed on the percentage inhibition rate versus logarithmic concentration curve of the compounds.
(§5) [formula] • X: logarithmic inhibitor concentration; Y: percentage inhibition rate; Bottom: a minimum value; Top: a maximum value; Hill Slope: hill slope

[3] = target: LRRK2 (Homo sapiens (Human), UniProt Q5S007); assay: HEK293 cell kinase inhibition assay (NanoBRET); type: cell-based; settings: HEK293 cells
Chain of LRRK2 (Homo sapiens (Human), UniProt Q5S007) (Q5S007 whole entry): as the sequence (Q5S007 whole entry R1441C) above, with C1441R counted along it
Experimental: as §1, §2, §3, §4, §5

[4] = target: LRRK2-2019S (Homo sapiens (Human), UniProt Q5S007, G2019S); assay: HEK293 cell kinase inhibition assay (NanoBRET); type: cell-based; settings: HEK293 cells
Chain of LRRK2-2019S (Q5S007 whole entry G2019S): as the sequence (Q5S007 whole entry R1441C) above, with C1441R, G2019S counted along it
Experimental: as §1, §2, §3, §4, §5

[5] = test system: LRRK2; assay: In vivo efficacy, oral administration: LRRK2 phosphorylation (pS935-LRRK2/LRRK2) in brain tissue by Western blot; design: species or system LRRK2-G2019S mice
Description: 1. Objective: The study aims to determine the in vivo efficacy of compound 527 by observing the inhibition effect of compound 527 on the phosphorylation level of LRRK2 in the brains of G2019S mutant LRRK2 gene knock-in mice following oral administration.
(1) Animals: B6.Cg-Tg(Lrrk2*G2019S)2Yue/J transgenic mice were purchased from Jackson Laboratory. The mice were bred with C57BL/6J mice to produce LRRK2 heterozygote mice carrying the G2019S mutation (LRRK2-G2019S mice). The mice included an equal number of male and female individuals, with body weights ranging from 16-20 g and ages between 15-17 weeks.
(2) Grouping and administration: The mice were randomly divided into 5 experimental groups based on their body weights. Each group consisted of 8 animals, with 4 males and 4 females. The specific administration for each experimental group is detailed in the following Table 1. Group G1 served as the vehicle control group. For group G2 to group G5, compound 527 was administered at doses of 1 mg/kg, 3 mg/kg, 10 mg/kg, and 30 mg/kg, respectively.
(3) Intracerebral LRRK2 activity assay: One hour after administration, the animals were euthanized using CO2. The brain tissues were collected, rapidly frozen in liquid nitrogen, and then cryopreserved at −80 C until subsequent experiments. The brain tissues were homogenized in an RIPA buffer containing cOmplete™ protease inhibitor mixture (Roche, 04693124001) and phosphatase inhibitor mixture 2 (sigma, R^0278). Protein quantification was performed using the BCA method. The phosphorylation level of LRRK2 at pS935 site (primary antibody Anti-LRRK2 (phospho S935) antibody, abcam, ab133450), and the total LRRK2 level (primary antibody Anti-LRRK2 antibody, Abcam, ab33518) were detected by Western blot method. The activity level of LRRK2 in the brain was represented by the phosphorylation level at S935 site of LRRK2, i.e., the ratio of pS935-LRRK2 to total LRRK2 (pS935-LRRK2/LRRK2).

[6] = LRRK2-G2019S mice, oral gavage, single dose, brain collected 1 h after administration

Chain of LRRK2 G2019S (Q5S007 whole entry G2019S): as the sequence (Q5S007 whole entry R1441C) above, with C1441R, G2019S counted along it

`C[C@@H]1CN(c2cc(-c3n[nH]c4ccnc(NC5(C)CC5)c34)ncn2)C[C@H](C)O1` [Compound 391] was tested, and the IC50 [1] was 9.5 nM.

In the case of `C[C@@H]1C[C@H](Nc2nccc3[nH]nc(-c4cc(N5C[C@@H](C)O[C@@H](C)C5)ncn4)c23)C[C@H](C)O1` [Compound 407, 3-(6-((2S,6R)-2,6-dimethylmorpholinyl)pyrimidin-4-yl)-N-((2R,4R,6S)-2,6-dimethyltetrahydro-2H-pyran-4-yl)-1H-pyrazolo[4,3-c]pyridine-4-amine], the IC50 [1] is reported as 2.2 nM.

`C[C@@H]1C[C@H](Nc2nccc3[nH]nc(-c4cc(N5C[C@@H]6C[C@H]5CO6)ncn4)c23)C[C@H](C)O1` [Compound 424] showed an IC50 [1] of 3.7 nM.

In the case of `C[C@@H]1C[C@H](Nc2nccc3[nH]nc(-c4cc(N5C[C@H]6C[C@@H]5CO6)ncn4)c23)C[C@H](C)O1` [Compound 425], the IC50 [1] is reported as 1.9 nM.

Work on `C[C@@H]1C[C@@H](Nc2nccc3[nH]nc(-c4cc(N5C[C@H]6C[C@@H]5CO6)ncn4)c23)C[C@H](C)O1` [Compound 440] yielded an IC50 [1] of 36.5 nM.

Work on `C[C@@H]1CN(c2cc(-c3n[nH]c4ccnc(NCC(F)(F)F)c34)ncn2)C[C@H](C)O1` [Compound 447] yielded an IC50 [1] of 2.8 nM, an IC50 [2] of 297 nM and an IC50 [3] of 247 nM. It also gave an IC50 [4] of 97.5 nM.

`FC(F)(F)CNc1nccc2[nH]nc(-c3cc(N4C[C@@H]5C[C@H]4CO5)ncn3)c12` [Compound 486] was tested, and the IC50 [1] was 3.1 nM.

For `FC(F)(F)CNc1nccc2[nH]nc(-c3cc(N4C[C@H]5C[C@@H]4CO5)ncn3)c12` [Compound 487], the IC50 [1] was 2.4 nM.

Compound `CC(C)n1cc(-c2n[nH]c3ccnc(NCC(F)(F)F)c23)cn1` [Compound 515] has an IC50 [1] of 27.7 nM.

Work on `FC(F)(F)CNc1nccc2[nH]nc(-c3cc(N4C5CCC4COC5)ncn3)c12` [Compound 520] yielded an IC50 [1] of 4.8 nM.

`N#CC1(c2cc(-c3n[nH]c4ccnc(NCC(F)(F)F)c34)ncn2)CCC1` [Compound 523, 1-(6-(4-((2,2,2-trifluoroethyl)amino)-1H-pyrazolo[4,3-c]pyridin-3-yl)pyrimidin-4-yl)cyclobutane-1-carbonitrile] was tested, and the IC50 [1] was 2.4 nM.

Work on `O[C@@H]1C[C@H](O)CN(c2cc(-c3n[nH]c4ccnc(NCC(F)(F)F)c34)ncn2)C1` [Compound 526, (3S,5R)-1-(6-(4-((2,2,2-trifluoroethyl)amino)-1H-pyrazolo[4,3-c]pyridin-3-yl)pyrimidin-4-yl)piperidine-3,5-diol] yielded an IC50 [1] of 5.1 nM.

With `C[C@@H]1CN(c2cc(-c3n[nH]c4ccnc(N[C@H](C)C(F)(F)F)c34)ncn2)C[C@H](C)O1` [Compound 527] the IC50 [1] was 1.2 nM, the IC50 [2] was 45.9 nM and the IC50 [3] was 24.7 nM. For the same compound, the IC50 [4] was 16.3 nM, the “inhibition of the phosphorylation of LRRK2 in the brain tissues” value ([5]; 30 mg/kg oral gavage, 1 h, LRRK2-G2019S mice, stated as the definition of the maximum effective dose) was 60% and the “effective dose for inhibiting the phosphorylation of LRRK2 in the brain tissues” value [5, 6] was 10 mg/kg. For the same compound, the “maximum effective dose (defined as 60% inhibition of the phosphorylation of LRRK2)” value [5, 6] was 30 mg/kg, the “human equivalent dose corresponding to the effective dose” value ([5]; calculated for a body weight of 70 kg, from 10 mg/kg in mice) was 57 mg and the “human equivalent dose corresponding to the maximum effective dose” value ([5]; calculated for a body weight of 70 kg, from 30 mg/kg in mice) was 171 mg.

With `C[C@@H]1CN(c2cc(-c3n[nH]c4ccnc(N[C@@H](C)C(F)(F)F)c34)ncn2)C[C@H](C)O1` [Compound 528] the IC50 [1] was 1.6 nM.

For `C[C@H]1CN(c2cc(-c3n[nH]c4ccnc(N[C@H](C)C(F)(F)F)c34)ncn2)C[C@H](C)O1` [Compound 561], the IC50 [1] was 1.3 nM.

For `FC(F)(F)CNc1nccc2[nH]nc(-c3ccccn3)c12` [Control compound, reference compound], the IC50 [1] was 12 nM.
